Legend:
CD73 [1] = biological target: T1, CD73 (Homo sapiens, UniProt P21589); assay: Human CD73 Biochemical Assay; conditions: 0.05 nM recombinant CD73; AMP 5.56 μM final; 10 min at room temperature; LC/MS adenosine readout; read-out: Enzymatic IC50 against human CD73
T1 sequence (P21589 27-574): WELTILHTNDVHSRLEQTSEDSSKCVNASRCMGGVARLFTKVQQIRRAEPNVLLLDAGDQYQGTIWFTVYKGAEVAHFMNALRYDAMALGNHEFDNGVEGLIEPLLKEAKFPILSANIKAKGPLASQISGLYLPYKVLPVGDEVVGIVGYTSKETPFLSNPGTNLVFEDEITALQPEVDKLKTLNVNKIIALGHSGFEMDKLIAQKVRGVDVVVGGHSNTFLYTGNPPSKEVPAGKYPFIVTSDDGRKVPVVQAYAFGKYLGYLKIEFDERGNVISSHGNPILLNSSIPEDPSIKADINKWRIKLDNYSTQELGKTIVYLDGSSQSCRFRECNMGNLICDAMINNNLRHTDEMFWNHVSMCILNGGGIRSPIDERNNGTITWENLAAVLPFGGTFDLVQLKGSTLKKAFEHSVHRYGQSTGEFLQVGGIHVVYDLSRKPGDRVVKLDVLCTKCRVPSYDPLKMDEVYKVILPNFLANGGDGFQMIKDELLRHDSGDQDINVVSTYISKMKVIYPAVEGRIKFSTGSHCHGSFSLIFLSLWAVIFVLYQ
Experimental: The purpose of this assay is to identify and characterize inhibitors of human CD73 enzymatic activity. Compound serial dilution (1:3) was prepared with Echo 555 liquid handler (Labcyte) into the corresponding wells of a 384-well plate. 10 μL of enzyme working solution (containing 0.05 nM recombinant CD73 protein, 10 mM Tris pH 7.5, 100 mM NaCl, 0.01% BSA, 0.2 mM Octyl glucoside and 1 mM NaH2PO4) was added to the assay plate and incubated with compounds for 15 minutes at room temperature. After adding 15 μL of AMP working solution (Containing 10 mM Tris pH 7.5, 100 mM NaCl, 0.01% BSA, 0.2 mM Octyl glucoside, with 5.56 μM of AMP final concentration) and incubate for 10 min at room temperature. Stop the reaction by adding 75 μL of stop solution (5% TCA in H2O containing 250 nM 13C5-adenosine) to each well for 10 min incubation. After centrifugation, 75 μL of the mixture was transferred to a new 384-well plate for LC/MS analysis.
Samples from the 384-well plates, were loaded onto an autosampler deck, then injected with ADDA-LC-MS/MS. The aqueous mobile phase is 0.1% formic acid in water. The organic mobile phase is 0.1% formic acid in acetonitrile. Flow rate is maintained at 0.8 mL/minute using Shimadzu pumps. The column is ACE 5 Phenyl, 50×2.1 mm. The analysis was performed on a SCIEX triple quadrupole mass spectrometer operating in positive ion mode. The effluent from the HPLC column was directly introduced into the electrospray ionization (ESI). Multiple reaction monitoring (MRM) is used to determine analyte and internal standard (IS) responses. The MRM for adenosine is 268.1/136.1, for 13C5-Adenosine (IS) is 273.2/136.2. The data is calculated using the peak area ratio (PAR) semi-quantitative method.

CD73 [2] = biological target: T1, CD73; assay: CD73 Cellular Assay; type: cell-based; design: 40 μL of MDA-MB-231 cells (ATCC, HTB-26, breast cancer); host or cells: MDA-MB-231; conditions: MDA-MB-231 cells; 200 μM AMP working solution; 45 min at 37° C.; malachite readout; read-out: Cellular IC50 against CD73
Experimental: Compound serial dilution (1:3) was prepared with Echo 555 liquid handler (Labcyte) into the corresponding wells of a 384-well plate. 40 μL of MDA-MB-231 cells (ATCC, HTB-26, breast cancer, final concentration at 20,000 cells/mL) suspended in assay buffer (20 mM HEPES pH 7.4, 137 mM NaCl, 5.4 mM KCl, 1.3 mM CaCl2, 4.2 mM NaHCO3, 1 mg/mL glucose) were added into the corresponding wells of the plate. After incubating with compounds for 30 minutes, 40 μL of AMP working solution (200 μM AMP in assay buffer) was added into each well in the assay plate. The assay plate was then incubated in a 5% CO2 incubator (Thermo Fisher Scientific) at 37° C. for 45 min. After the reaction was completed, 50 μL of the supernatants was collected and transferred into a new 384 well plate. 10 μL of Malachite A was added to each well in the assay plate and incubated for 10 minutes. 10 μL of Malachite B was then added to each corresponding well of the plate and incubated for 30 minutes. Finally the absorbance value was read on the Envision plate reader at […]. Calculation percentage inhibition by using equation {% inhibition=100×[1−(X−MIN)/(MAX−MIN)]} where X equals to the well signal, Max equals signal of neutral control and MIN equals signal of inhibitor control.

| SMILES | IC50 (CD73 [1]) | IC50 (CD73 [2]) |
| --- | --- | --- |
| C[C@H]1COC[C@@H]1Oc1cc([C@@H](Oc2nn(C)c3nnc(-c4c[nH]c(=O)[nH]c4=O)cc23)C(F)F)ccn1 (stereo in doubt) [Example 40, 5-[1-methyl-3-[(1R)-2,2-difluoro-1-[2-[(trans)-4-methyltetrahydrofuran-3-yl]oxy-4-pyridyl]ethoxy]pyrazolo[3,4-c]pyridazin-5-yl]-1H-pyrimidine-2,4-dione] | 0.05 nM | 0.57 nM |
| Cn1nc(O[C@H](c2cccc(OCC(F)(F)F)c2)C(F)F)c2cc(-c3c[nH]c(=O)[nH]c3=O)nnc21 [Example 1, 5-[3-[(1R)-2,2-difluoro-1-[3-(2,2,2-trifluoroethoxy)phenyl]ethoxy]-1-methyl-pyrazolo[3,4-c]pyridazin-5-yl]-1H-pyrimidine-2,4-dione] | 0.08 nM | 0.7 nM |
| Cn1nc(O[C@H](c2ccc(F)c(OCC(F)(F)F)c2)C(F)F)c2cc(-c3c[nH]c(=O)[nH]c3=O)nnc21 [Example 3, 5-[3-[(1R)-2,2-difluoro-1-[4-fluoro-3-(2,2,2-trifluoroethoxy)phenyl]ethoxy]-1-methyl-pyrazolo[3,4-c]pyridazin-5-yl]-1H-pyrimidine-2,4-dione] | 0.17 nM | 0.91 nM |
| [2H]C([2H])(Oc1ccnc([C@@H](Oc2nn(C)c3nnc(-c4c[nH]c(=O)[nH]c4=O)cc23)C(F)F)c1)C(F)(F)F [Example 5, 5-[3-[(1R)-1-[4-(1,1-dideuterio-2,2,2-trifluoro-ethoxy)-2-pyridyl]-2,2-difluoro-ethoxy]-1-methyl-pyrazolo[3,4-c]pyridazin-5-yl]-1H-pyrimidine-2,4-dione] | – | 0.52 nM |
| [2H]C([2H])([2H])n1nc(O[C@H](c2cc(OCC(F)(F)F)ccn2)C(F)F)c2cc(-c3c[nH]c(=O)[nH]c3=O)nnc21 [Example 6, 5-[3-[(1R)-2,2-difluoro-1-[4-(2,2,2-trifluoroethoxy)-2-pyridyl]ethoxy]-1-(trideuteriomethyl)pyrazolo[3,4-c]pyridazin-5-yl]-1H-pyrimidine-2,4-dione] | – | 0.43 nM |
| CC(Oc1ccnc([C@@H](Oc2nn(C)c3nnc(-c4c[nH]c(=O)[nH]c4=O)cc23)C(F)F)c1)C(F)(F)F (stereo partly drawn) [Example 17, 5-[1-methyl-3-[(1R)-2,2-difluoro-1-[4-(2,2,2-trifluoro-1-methyl-ethoxy)-2-pyridyl]ethoxy]pyrazolo[3,4-c]pyridazin-5-yl]-1H-pyrimidine-2,4-dione] | – | 0.39 nM |
| Cn1nc(O[C@H](c2cc(OCC3CC3(F)F)ccn2)C(F)F)c2cc(-c3c[nH]c(=O)[nH]c3=O)nnc21 (stereo partly drawn) [Example 18, 5-[1-methyl-3-[(1R)-1-[4-[(2,2-difluorocyclopropyl)methoxy]-2-pyridyl]-2,2-difluoro-ethoxy]pyrazolo[3,4-c]pyridazin-5-yl]-1H-pyrimidine-2,4-dione] | – | 0.54 nM |
| Cn1nc(O[C@H](c2cc(OCC3(F)CC3)ccn2)C(F)F)c2cc(-c3c[nH]c(=O)[nH]c3=O)nnc21 [Example 19, 5-[3-[(1R)-2,2-difluoro-1-[4-[(1-fluorocyclopropyl)methoxy]-2-pyridyl]ethoxy]-1-methyl-pyrazolo[3,4-c]pyridazin-5-yl]-1H-pyrimidine-2,4-dione] | – | 0.59 nM |
| Cn1nc(O[C@H](c2cc(OCC3(C#N)CC3)ccn2)C(F)F)c2cc(-c3c[nH]c(=O)[nH]c3=O)nnc21 [Example 22, 1-[[2-[(1R)-1-[5-(2,4-dioxo-1H-pyrimidin-5-yl)-1-methyl-pyrazolo[3,4-c]pyridazin-3-yl]oxy-2,2-difluoro-ethyl]-4-pyridyl]oxymethyl]cyclopropanecarbonitrile] | – | 0.43 nM |
| Cn1nc(O[C@H](c2ccc3c(c2)N(CC(F)(F)F)CCO3)C(F)F)c2cc(-c3c[nH]c(=O)[nH]c3=O)nnc21 [Example 25, 5-[3-[(1R)-2,2-difluoro-1-[4-(2,2,2-trifluoroethyl)-2,3-dihydro-1,4-benzoxazin-6-yl]ethoxy]-1-methyl-pyrazolo[3,4-c]pyridazin-5-yl]-1H-pyrimidine-2,4-dione] | – | 1.29 nM |
| CCOc1cc([C@@H](Oc2nn(C)c3nnc(-c4c[nH]c(=O)[nH]c4=O)cc23)C(F)F)ccn1 [Example 29, 5-[3-[(1R)-1-(2-ethoxy-4-pyridyl)-2,2-difluoro-ethoxy]-1-methyl-pyrazolo[3,4-c]pyridazin-5-yl]-1H-pyrimidine-2,4-dione] | – | 0.51 nM |
| Cn1nc(O[C@H](c2ccnc(CN3CCC(F)(F)C3)c2)C(F)F)c2cc(-c3c[nH]c(=O)[nH]c3=O)nnc21 [Example 33, 5-[3-[(1R)-1-[2-[(3,3-difluoropyrrolidin-1-yl)methyl]-4-pyridyl]-2,2-difluoro-ethoxy]-1-methyl-pyrazolo[3,4-c]pyridazin-5-yl]-1H-pyrimidine-2,4-dione] | – | 0.63 nM |
| COC1(COc2cc([C@@H](Oc3nn(C)c4nnc(-c5c[nH]c(=O)[nH]c5=O)cc34)C(F)F)ccn2)CC1 [Example 41, 5-[3-[(1R)-2,2-difluoro-1-[2-[(1-methoxycyclopropyl)methoxy]-4-pyridyl]ethoxy]-1-methyl-pyrazolo[3,4-c]pyridazin-5-yl]-1H-pyrimidine-2,4-dione] | – | 0.73 nM |

Second part, the molecule after the results:

| IC50 (CD73 [1]) | IC50 (CD73 [2]) | SMILES |
| --- | --- | --- |
| 0.07 nM | 0.66 nM | Cn1nc(O[C@H](c2cncc(OCC(F)(F)F)c2)C(F)F)c2cc(-c3c[nH]c(=O)[nH]c3=O)nnc21 (single isomer, unassigned) [Example 8A] |
| 0.09 nM | 1.04 nM | C[C@H](Oc1nn(C)c2nnc(-c3c[nH]c(=O)[nH]c3=O)cc12)c1cc(OCC(F)(F)F)ncn1 (single isomer, unassigned) [Example 14A] |
| 0.08 nM | 0.62 nM | Cn1nc(O[C@H](c2cc(COC(F)(F)F)ccn2)C(F)F)c2cc(-c3c[nH]c(=O)[nH]c3=O)nnc21 (single isomer, unassigned) [Example 36A] |
| 0.13 nM | 0.87 nM | C[C@H](OC1CC1)c1cc([C@@H](Oc2nn(C)c3nnc(-c4c[nH]c(=O)[nH]c4=O)cc23)C(F)F)ccn1 (single isomer, unassigned) [Example 37A] |
| 0.09 nM | 0.84 nM | C[C@@H](OC1CC1)c1cc([C@@H](Oc2nn(C)c3nnc(-c4c[nH]c(=O)[nH]c4=O)cc23)C(F)F)ccn1 (single isomer, unassigned) [Example 37B] |
| – | 0.65 nM | [2H]C([2H])([2H])C([2H])([2H])Oc1cc([C@@H](Oc2nn(C)c3nnc(-c4c[nH]c(=O)[nH]c4=O)cc23)C(F)F)ncn1 [Example 39A, 5-[3-[(1R)-2,2-difluoro-1-[6-(1,1,2,2,2-pentadeuterioethoxy)pyrimidin-4-yl]ethoxy]-1-methyl-pyrazolo[3,4-c]pyridazin-5-yl]-1H-pyrimidine-2,4-dione] |
